In general, EC50 refers to the concentration at which the effect is half-maximal. Read a low EC50 as greater potency.

Molecules are shown by their SMILES.

The target in this assay is agmTA1 receptor (Chlorocebus aethiops (Cercopithecus aethiops, African green monkey), UniProt A0A0D9SAC2, I11T/L334F). Kind of assay: CRE-luciferase reporter functional assay in HEK293 cells transiently expressing agmTA1 receptor. As to conditions: HEK293 cells transfected with pcDNA3.1-agmTA1 and pCRE-Luc; agonist 0.1 nM to 100 μM, 16 to 18 hours; luciferase activity. In kind it is cell-based.
For `NCCc1c[nH]c2ccccc12` [tryptamine], the EC50 was approximately 940 nM. The same measure for `NCC(O)c1ccc(O)cc1` (stereo not drawn) [octopamine]: approximately 200 nM.

`NCCc1ccc(O)cc1` [tyramine] gave an EC50 of approximately 16 nM.

(Values after patent publication US7368541B2, “Trace amine receptor 1 of the African green monkey” (Merck & Co., Inc., priority 2004, dated 2008).)
